Results as given in the NIST ThermoML archive (doi:10.1021/je7003947).
Where “and” joins values, the source holds several entries; their conditions need not be identical. Equal entries are not always repeated. Numbers after ± are expanded uncertainties. Blank lines part the entries; values can stand above or below the compound they belong to.

Conditions: Liquid, Closed cell (Static) method

SMILES: CC(C)(C)O [2-methylpropan-2-ol]
vapor or sublimation pressure (323.2 K): 23.8 ± 1.4 kPa

SMILES: CCC(C)O (stereo not drawn) [butan-2-ol]
vapor or sublimation pressure (323.17 K): 10.7 ± 1.4 kPa

SMILES: CC(C)O [propan-2-ol]
vapor or sublimation pressure (323.19 K): 23.6 ± 0.2 kPa

Next, values leading:

vapor or sublimation pressure (323.12 K): 495 ± 2.2 kPa | vapor or sublimation pressure (323.13 K): 495.3 ± 2.2 kPa | vapor or sublimation pressure (323.15 K): 495.6 ± 1.8 kPa and 495.7 ± 2.2 kPa
SMILES: CCCC [butane]

vapor or sublimation pressure (323.14 K): 29.4 ± 1.4 kPa
SMILES: CCO [ethanol]

vapor or sublimation pressure (323.13 K): 55.5 ± 1.4 kPa
SMILES: CO [methanol]
